Data taken from US9695155B2, “Herbicidal substituted pyrimidinyloxy benzene compounds” (E. I. DU PONT DE NEMOURS AND COMPANY, priority 2013, dated 2017).

Assays:
deadnettle = experiment: Test D postemergence; format: in vivo, Lamium amplexicaule; details: Lamium amplexicaule, post-emergence, scale 0 to 100 (0 no effect, 100 complete control), read-out: Plant response rating, Deadnettle
In short: (§1)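 Visual rating vs untreated controls, 0 = no effect, 100 = complete control, taken 7–21 d after treatment. Pre: silt loam soil. Post: potting medium, plants 2–18 cm, 1–4 leaf. Formulation: non-phytotoxic solvent mix + surfactant.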

oilseed rape = experiment: Test D postemergence; format: in vivo, Brassica napus; details: Brassica napus, post-emergence, scale 0 to 100 (0 no effect, 100 complete control), read-out: Plant response rating, Oilseed Rape
In short: as §1

wild buckwheat = experiment: Test D postemergence; format: in vivo, Polygonum convolvulus; details: Fallopia convolvulus, post-emergence, Postemergence, scale 0 to 100 (0 no effect, 100 complete control), read-out: Plant response rating, Buckwheat, Wild
In short: as §1

Italian ryegrass [1] = experiment: Test D preemergence; format: in vivo, Lolium multiflorum; details: Lolium multiflorum, pre-emergence
In short: as §1

chamomile = experiment: Test D postemergence; format: in vivo, Matricaria inodora; details: Tripleurospermum inodorum, post-emergence, scale 0 to 100 (0 no effect, 100 complete control), read-out: Plant response rating, Chamomile
In short: as §1

canarygrass = experiment: Test D postemergence; format: in vivo, Phalaris minor; details: Phalaris minor, post-emergence, scale 0 to 100 (0 no effect, 100 complete control), read-out: Plant response rating, Canarygrass
In short: as §1

bluegrass = experiment: Test D preemergence; format: in vivo, Poa annua; details: Poa annua, pre-emergence, scale 0-100, read-out: Plant response rating, Bluegrass
In short: as §1

Italian ryegrass [2] = experiment: Test E postemergence; format: in vivo, Lolium multiflorum; details: Lolium multiflorum, post-emergence, read-out: Plant response rating, Ryegrass, Italian
In short: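 Response was scored visually on a 0-100 scale (100 = complete control) versus controls after 14 to 21 days in the greenhouse. Test chemicals, formulated with surfactant in a non-phytotoxic solvent mixture, had been applied preemergence to seeds in silt loam soil or postemergence to 1- to 4-leaf plants in potting medium.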

galium = experiment: Test D postemergence; format: in vivo, Galium aparine; details: Galium, post-emergence, scale 0 to 100 (0 no effect, 100 complete control), read-out: Plant response rating, Galium
In short: as §1

kochia = experiment: Test D preemergence; format: in vivo, Kochia scoparia; details: Bassia scoparia, pre-emergence, scale 0-100, read-out: Plant response rating, Kochia
In short: as §1

field violet = experiment: Test D preemergence; format: in vivo, Viola arvensis; details: Viola arvensis, pre-emergence, scale 0-100, read-out: Plant response rating, Field Violet
In short: as §1

Italian ryegrass [3] = experiment: Test D postemergence; format: in vivo, Lolium multiflorum; details: Lolium multiflorum, post-emergence, scale 0 to 100 (0 no effect, 100 complete control), read-out: Plant response rating, Ryegrass, Italian
In short: as §1

blackgrass = experiment: Test D preemergence; format: in vivo, Alopecurus myosuroides; details: Alopecurus myosuroides, pre-emergence, scale 0-100, read-out: Plant response rating, Blackgrass
In short: as §1

Question: With `N#Cc1cccc(Oc2ncc(Br)cn2)c1-n1cc(C(F)(F)F)cn1` [Compound 59, 3-[(5-bromo-2-pyrimidinyl)oxy]-2-[4-(trifluoromethyl)-1H-pyrazol-1-yl]benzonitrile] as the molecule, how does the pest or weed control at 31 g/ha (deadnettle; 31 g ai/ha) read?
Answer: The pest or weed control at 31 g/ha was 70%.

Question: And the pest or weed control at 62 g/ha (deadnettle; 62 g ai/ha)?
Answer: Its pest or weed control at 62 g/ha is 75%.

Question: And the pest or weed control at 125 g/ha (deadnettle; 125 g ai/ha)?
Answer: The pest or weed control at 125 g/ha was 100%.

Question: What about the pest or weed control at 250 g/ha (deadnettle; 250 g ai/ha) of the same molecule?
Answer: Its pest or weed control at 250 g/ha is 100%.

Question: What about the plant injury at 31 g/ha (oilseed rape; 31 g ai/ha) of the same molecule?
Answer: Its plant injury at 31 g/ha is 65%.

Question: And the plant injury at 62 g/ha (oilseed rape; 62 g ai/ha)?
Answer: The plant injury at 62 g/ha was 65%.

Question: What about the plant injury at 125 g/ha (oilseed rape; 125 g ai/ha) of the same molecule?
Answer: Its plant injury at 125 g/ha is 75%.

Question: And the plant injury at 250 g/ha (oilseed rape; 250 g ai/ha)?
Answer: Its plant injury at 250 g/ha is 100%.

Question: And the pest or weed control at 31 g/ha (wild buckwheat; 31 g ai/ha)?
Answer: The pest or weed control at 31 g/ha was 80%.

Question: And the pest or weed control at 62 g/ha (wild buckwheat; 62 g ai/ha)?
Answer: The pest or weed control at 62 g/ha was 100%.

Question: What about the pest or weed control at 125 g/ha (wild buckwheat; 125 g ai/ha) of the same molecule?
Answer: The pest or weed control at 125 g/ha was 100%.

Question: What about the pest or weed control at 250 g/ha (wild buckwheat; 250 g ai/ha) of the same molecule?
Answer: Its pest or weed control at 250 g/ha is 100%.

Question: And the pest or weed control at 31 g/ha (Italian ryegrass [1]; 31 g ai/ha, scale 0 (no effect) to 100 (complete control), read-out: Plant response rating, Ryegrass, Italian)?
Answer: Its pest or weed control at 31 g/ha is 0%.

Question: And the pest or weed control at 62 g/ha (Italian ryegrass [1]; 62 g ai/ha, scale 0-100, read-out: Plant response rating, Ryegrass, Italian)?
Answer: The pest or weed control at 62 g/ha was 5%.

Question: And the pest or weed control at 125 g/ha (Italian ryegrass [1]; 125 g ai/ha, scale 0-100, read-out: Plant response rating, Ryegrass, Italian)?
Answer: Its pest or weed control at 125 g/ha is 60%.

Question: And the pest or weed control at 250 g/ha (Italian ryegrass [1]; 250 g ai/ha, scale 0-100, read-out: Plant response rating, Ryegrass, Italian)?
Answer: The pest or weed control at 250 g/ha was 70%.

Question: And the pest or weed control at 31 g/ha (chamomile; 31 g ai/ha)?
Answer: Its pest or weed control at 31 g/ha is 5%.

Question: What about the pest or weed control at 62 g/ha (chamomile; 62 g ai/ha) of the same molecule?
Answer: Its pest or weed control at 62 g/ha is 10%.

Question: And the pest or weed control at 125 g/ha (chamomile; 125 g ai/ha)?
Answer: Its pest or weed control at 125 g/ha is 10%.

Question: And the pest or weed control at 250 g/ha (chamomile; 250 g ai/ha)?
Answer: Its pest or weed control at 250 g/ha is 15%.

Question: What about the pest or weed control at 31 g/ha (canarygrass; 31 g ai/ha) of the same molecule?
Answer: The pest or weed control at 31 g/ha was 20%.

Question: And the pest or weed control at 62 g/ha (canarygrass; 62 g ai/ha)?
Answer: The pest or weed control at 62 g/ha was 30%.

Question: What about the pest or weed control at 125 g/ha (canarygrass; 125 g ai/ha) of the same molecule?
Answer: The pest or weed control at 125 g/ha was 35%.

Question: What about the pest or weed control at 250 g/ha (canarygrass; 250 g ai/ha) of the same molecule?
Answer: Its pest or weed control at 250 g/ha is 35%.

Question: What about the pest or weed control at 31 g/ha (bluegrass; 31 g ai/ha) of the same molecule?
Answer: The pest or weed control at 31 g/ha was 5%.

Question: What about the pest or weed control at 62 g/ha (bluegrass; 62 g ai/ha) of the same molecule?
Answer: Its pest or weed control at 62 g/ha is 10%.

Question: And the pest or weed control at 125 g/ha (bluegrass; 125 g ai/ha)?
Answer: Its pest or weed control at 125 g/ha is 35%.

Question: What about the pest or weed control at 250 g/ha (bluegrass; 250 g ai/ha) of the same molecule?
Answer: The pest or weed control at 250 g/ha was 85%.

Question: What about the pest or weed control at 31 g/ha (Italian ryegrass [2]; Postemergence, 31 g ai/ha, scale 0 to 100) of the same molecule?
Answer: The pest or weed control at 31 g/ha was 0%.

Question: And the pest or weed control at 62 g/ha (Italian ryegrass [2]; Postemergence, 62 g ai/ha, scale 0 to 100)?
Answer: The pest or weed control at 62 g/ha was 15%.

Question: What about the pest or weed control at 125 g/ha (Italian ryegrass [2]; Postemergence, 125 g ai/ha, scale 0 to 100) of the same molecule?
Answer: The pest or weed control at 125 g/ha was 25%.

Question: And the pest or weed control at 250 g/ha (Italian ryegrass [2]; Postemergence, 250 g ai/ha, scale 0 to 100)?
Answer: The pest or weed control at 250 g/ha was 60%.

Question: And the pest or weed control at 16 g/ha (Italian ryegrass [2]; postemergence, 16 g ai/ha, scale 0 to 100, 0 no effect, 100 complete control)?
Answer: Its pest or weed control at 16 g/ha is 0%.

Question: What about the pest or weed control at 31 g/ha (galium; 31 g ai/ha) of the same molecule?
Answer: The pest or weed control at 31 g/ha was 75%.

Question: What about the pest or weed control at 62 g/ha (galium; 62 g ai/ha) of the same molecule?
Answer: The pest or weed control at 62 g/ha was 80%.

Question: What about the pest or weed control at 125 g/ha (galium; 125 g ai/ha) of the same molecule?
Answer: The pest or weed control at 125 g/ha was 95%.

Question: What about the pest or weed control at 250 g/ha (galium; 250 g ai/ha) of the same molecule?
Answer: The pest or weed control at 250 g/ha was 95%.

Question: What about the pest or weed control at 31 g/ha (kochia; 31 g ai/ha) of the same molecule?
Answer: The pest or weed control at 31 g/ha was 90%.

Question: And the pest or weed control at 62 g/ha (kochia; 62 g ai/ha)?
Answer: The pest or weed control at 62 g/ha was 80%.

Question: What about the pest or weed control at 125 g/ha (kochia; 125 g ai/ha) of the same molecule?
Answer: The pest or weed control at 125 g/ha was 100%.

Question: And the pest or weed control at 250 g/ha (kochia; 250 g ai/ha)?
Answer: The pest or weed control at 250 g/ha was 100%.

Question: What about the pest or weed control at 31 g/ha (field violet; 31 g ai/ha) of the same molecule?
Answer: The pest or weed control at 31 g/ha was 65%.

Question: What about the pest or weed control at 62 g/ha (field violet; 62 g ai/ha) of the same molecule?
Answer: The pest or weed control at 62 g/ha was 85%.

Question: What about the pest or weed control at 125 g/ha (field violet; 125 g ai/ha) of the same molecule?
Answer: Its pest or weed control at 125 g/ha is 100%.

Question: What about the pest or weed control at 250 g/ha (field violet; 250 g ai/ha) of the same molecule?
Answer: The pest or weed control at 250 g/ha was 100%.

Question: And the pest or weed control at 31 g/ha (Italian ryegrass [3]; 31 g ai/ha)?
Answer: The pest or weed control at 31 g/ha was 10%.

Question: What about the pest or weed control at 62 g/ha (Italian ryegrass [3]; 62 g ai/ha) of the same molecule?
Answer: Its pest or weed control at 62 g/ha is 10%.

Question: What about the pest or weed control at 125 g/ha (Italian ryegrass [3]; 125 g ai/ha) of the same molecule?
Answer: Its pest or weed control at 125 g/ha is 40%.

Question: What about the pest or weed control at 250 g/ha (Italian ryegrass [3]; 250 g ai/ha) of the same molecule?
Answer: The pest or weed control at 250 g/ha was 50%.

Question: And the pest or weed control at 31 g/ha (blackgrass; 31 g ai/ha)?
Answer: The pest or weed control at 31 g/ha was 25%.

Question: And the pest or weed control at 62 g/ha (blackgrass; 62 g ai/ha)?
Answer: The pest or weed control at 62 g/ha was 55%.

Question: What about the pest or weed control at 125 g/ha (blackgrass; 125 g ai/ha) of the same molecule?
Answer: The pest or weed control at 125 g/ha was 70%.

Question: What about the pest or weed control at 250 g/ha (blackgrass; 250 g ai/ha) of the same molecule?
Answer: Its pest or weed control at 250 g/ha is 85%.
